Source: patent US20070212772A1, “RHIZOBIUM LEGUMINOSARUM STRAIN AND USE THEREOF AS PLANT INOCULANT” (priority 2005, published 2007)

Tested on: pea (cultivar 'Mozart')
Experiment: Growth chamber pot test of Rhizobium strains on pea, biomass and nitrogen in plant tissue (Experiment 1)
Assay type: in vivo
Design: Total Nitrogen per Shoot: unit not given here
Conditions: 35 days; for % Nitrogen: shoot tissue
Procedure: • 1) To evaluate eight previously untested Rhizobium strains for their ability to enhance biomass accumulation and nitrogen in legume plant tissue. These eight strains are evaluated against known strains PBI #108 and PBI#101. Note that PBI #108 is a commercial strain of Rhizobium leguminosarum that can be obtained from the Australian Legume Inoculants Research Unit of the New South Wales Agriculture Horticultural Research & Advisory Station, Locked Bag 26, Gosford, New South Wales, 2250, Australia under the deposit number ALIRU SU303. PBI #101 is a strain available from the USDA under deposit number 2449. Experimental Design: Factorial Design: 2 Soil Types (Aberdeen soil, Kyle soil) • 1 Pea seed Cultivar (‘Mozart’) • 12 Seed Treatments (Uninoculated, Nitrogen, Eight untested strains, PBI #108, PBI #101) • Randomized Block. Strain Selection Criteria: • 1) Collected field soil was sifted through a ¼ inch screen to remove any lumps of soil, roots, other plant material, sticks, etc. The soil was then spread out to dry for a period of one week and then placed into plastic bins until needed. • 2) Pots (4-½ inch×5 inch deep) were then labeled according to treatment. A sterile square pieces of spun polyester (black landscape fabric) was then placed into the bottom of each of the pots to prevent the sand/soil mixture from draining out through the pots drainage holes. • 3) A 50% mixture of Kyle soil/silica sand or 50% Aberdeen soil/silica sand (Unimum Industries—industrial quartz) was used as a potting media. • 4) After filling each pot with the sand/soil mixture each pot was placed into a large plastic Ziploc™ bag. • 5) One day before seeding each pot was watered with 150 ml of tap water (non-sterile) and the bags were sealed until seeded. • 6) On the day of seeding 5.5 kg of pea seed—cultivar ‘Mozart’—was divided up into eleven 500 gram amounts and surfaced sterilized via the following method: • a) Place 500 grams of seed into a 2 liter glass Erlenmeyer flask • b) Cover the seeds with 95% Ethanol, let stand 60 seconds then drain. • c) Add a fresh preparation of a 50% bleach solution (1000 mls into 1000 mls water-2.6% NaOCl active), add seed, shake and let stand 5 minutes, then drain. • d) Rinse with 4 changes of R.O. water (non-sterile) followed by one rinse with sterile R.O. water. • 7) After surface sterilization each 500 g amount of seed was spread into an aluminum foil pan lined with sterile paper towel and blotted dry and then transferred into clean large Ziploc™ bags. • 8) After inoculation uninoculated and inoculated pea seeds were planted. Five pea seeds were placed into each pot 2 inches below the surface. Spoons and forceps used to plant the seed were washed and dried thoroughly between treatments. 9) The bags were then sealed and placed into a growth chamber that was set for the following conditions: [table] • 10) Each pot was placed into a plastic bin in a randomized block design (two bins contained one pot of each of the 24 treatments). A total of 20 bins were used to hold all of the treatments. Three times a week (Monday's, Wednesdays and Fridays) each plastic bin was moved one bin position to the right. This was done to ensure differences in light intensity/quality or temperature were consistent for each of the treatments inside the growth chamber. • 11) Bags were kept fully closed until 50% emergence was observed, then fully opened. • 12) Plants were checked daily and watered as required using tap water. • 13) After 35 days plants were photographed (digital image file) and then harvested.

Nitrogen
Shoot dry weights (mean) (Aberdeen soil): 0.45 grams per shoot
Total Nitrogen per Shoot (Aberdeen soil): 0.0144
% Nitrogen (Aberdeen soil): 3.18%
Shoot dry weights (mean) (Kyle soil): 0.46 grams per shoot
Total Nitrogen per Shoot (Kyle soil): 0.0131
Visual Assessment of Plant Color, Ranking Based on Color (Kyle soil, ranked from darkest green (1) to yellow/green (12)): 1
% Nitrogen (Kyle soil): 2.80%
